Experimental data as given in patent publication US12440581B2, “Fluorophores for super-resolution imaging” (HOWARD HUGHES MEDICAL INSTITUTE, priority 2019, dated 2025).
Where two headings read alike, the source gives them in different places.

Columns and labels:
[1] = Determination KL-Z and εmax; format: physicochemical; conditions: for εmax: 0.1% TFA in TFE (rhodamine 10), 0.1% TFA in ethanol (Si-rhodamine 8); for KL-Z (lactone-zwitterion equilibrium constant): 1:1 (v/v) dioxane:water, 0.01% triethylamine
Experimental: Determination KL-Z and εmax. The lactone-zwitterion equilibrium constant (KL-Z) was calculated as described previously^18,41 using equation 1: KL-Z=(εdw/εmax)/(1−εdw/εmax) (1) • where εdw is the extinction coefficient of the dyes in a 1:1 (v/v) dioxane:water solvent mixture containing 0.01% (v/v) triethylamine; the dioxane-water mixture was chosen to give a large range of KL-Z values and the triethylamine additive ensures the rhodamines are in the net neutral form. The emax (maximal extinction coefficient) values were measured in 0.1% (v/v) trifluoroacetic acid (TFA) in 2,2,2-trifluoroethanol (TFE) for rhodaminc 10, and 0.1% (v/v) TFA in ethanol for the Si-rhodamine 8.
Instead, a solution of strong acid in alcoholic solvents was used (e.g., TFA in […]) to shift the equilibrium to the open form by protonation of the o-carboxyl group. This decades-old procedure^36 allows estimation of the maximal extinction coefficient (εmax) and determination of KL-Z=(ε/εmax)/(1−ε/εmax).
The KL-Z was determined using ε values measured in 1:1 dioxane:water to ensure a broad distribution of values.^18 An inverse relationship was observed between KL-Z and fluorogenicity, showing that KL-Z is sufficient to accurately predict the increase in fluorescence of rhodamine dyes. This increase in fluorescence is primarily driven by the increase in absorption; chromogenicity is correlated both with KL-Z and fluorogenicity (FIGS. 11E-11J). Importantly, this trend holds across different rhodamine scaffolds including Si-rhodamines (1-3), carborhodamines (4-5), and classic, oxygen-containing rhodamines (6-7, FIG. 1C). Based on this inverse relationship a simple rubric was determined: a dye with KL-Z<10^−2 should yield a HaloTag ligand with at least 10-fold fluorogenicity (FIG. 1E).

[2] = Introduction, known dyes; cited from earlier work
[3] = Quantum yield determination; format: physicochemical; conditions: for ϕ (fluorescence quantum yield): absolute, integrating sphere
Experimental: (§1) Quantum yield determination. All reported absolute fluorescence quantum yield values (Φ) were measured in the laboratory under identical conditions using a Quantaurus-QY spectrometer (model C11374, Hamamatsu). This instrument uses an integrating sphere to determine photons absorbed and emitted by a sample. Measurements were carried out using dilute samples (A<0.1) and self-absorption corrections were performed using the instrument software^57 when appropriate. Reported values are averages (n=3).

[4] = Absorption of dyes 1 and 2 in the presence of laboratory detergents; format: physicochemical; conditions: 20 mM sodium phosphate buffer, pH 7.0, 5 mg/mL detergent
Experimental: FIGS. 11A-11J. FIG. 11A-Absorption at λabs for dyes 1 and 2 in 20 mM sodium phosphate buffer, pH 7.0 containing 5 mg/mL detergent, error bars show±s.e.m. FIGS. 11B and 11C-Absorption spectra for dyes 1 (FIG. 11B) and 2 (FIG. 11C) near λabs in the presence (dashed line) or absence (solid line) of SDS. FIG. 11D—Chemical structures and properties of HaloTag ligands 1HTL-10HTL; ΔA/A0 indicates the change in absorption (ΔA) and ΔF/F0 indicates the change in fluorescence (ΔF) of the HaloTag ligands upon binding purified HaloTag protein divided by the basal absorption or fluorescence of the free ligand (F0 or A0). FIG. 11E—ΔA/A0 of the HaloTag ligands 1HTL-10HTL vs. KL-Z of the corresponding free dyes 1-10; the solid line indicates a linear fit (R^2=0.93). (f) ΔF/F0 vs. ΔA/A0 for the HaloTag ligands 1HTL-10HTL; the solid line indicates a linear fit (R^2=0.87). FIG. 11G—Normalized absorption (abs, solid line), normalized fluorescence excitation (ex, dashed line), and FIG. 11H—normalized fluorescence emission (em) spectra for dye 8 in 10 mM HEPES, pH 7.3.
The mechanism of SiR/JF646 fluorogenicity. […] The interaction between the Si-rhodamine dyes 1 and 2 and SDS was further characterized by measuring the absorption of 1 or 2 vs. [SDS] and observing the absorbance increase only above the critical micelle concentration (c.m.c.) of SDS (FIG. 1C). […]

[5] = Introduction, known dyes, cited from earlier work; for ε (extinction coefficient): free dye in aqueous solution
[6] = UV-vis and fluorescence spectroscopy; format: physicochemical; conditions: for εw / λabs / λem: 10 mM HEPES, pH 7.3; for hypsochromic shift: relative to parent dye (SiR for SiR110; JF549 for JF525)
Experimental: UV-vis and fluorescence spectroscopy. […] Spectroscopy was performed using 1-cm path length, 3.5-mL quartz cuvettes or 1-cm path length, 1.0-ml quartz microcuvettes (Starna Cells). All measurements were taken at ambient temperature (22±2° C.). Absorption spectra were recorded on a Cary Model 100 spectrometer (Agilent). Fluorescence spectra were recorded on a Cary Eclipse fluorometer (Varian). Maximum absorption wavelength (λabs), extinction coefficient (εw), and maximum emission wavelength (λem) were taken in 10 mM HEPES, pH 7.3 buffer unless otherwise noted; reported values for ew are averages (n=3). Normalized spectra are shown for clarity.

[7] = Introduction, known dyes; cited from earlier work; remark: listed apart in the source
[8] = test system: histone H2A.Z-HaloTag fusion; assay: Comparison of HaloTag ligands 6HTL and 9HTL in live yeast; format: cell-based, S. cerevisiae; conditions: 10 nM, 2 h, washed, wide-field fluorescence
Experimental: Comparison of HaloTag ligands 6HTL and 9HTL. in live yeast. A S. cerevisiae strain expressing a histone H2A.Z-HaloTag fusion under natural promoter control was created; the PDR5 transporter gene was also deleted for improved cellular retention of fluorescent ligands. Cells were grown to early log phase and incubated with either JF552-HaloTag ligand (9HTL; 10 nM) or JF549-HaloTag ligand (6HTL; 10 nM) for 2 h. Free ligand was removed by three washes in culture media and the live cells were imaged by wide-field fluorescence microscopy at ambient temperature.

polyG·polyC DNA (DNAGC) = assay: Quantum yield of 10HST following binding DNA (polyG·polyC); conditions: PBS pH 7.4, with polyG·polyC DNA duplex
Experimental: as §1
(§2) Measurement of increase in absorbance and fluorescence of 10HST following binding DNA. 10HST (5 μM) was added to phosphate buffered saline (PBS; pH 7.4) containing no DNA (blank), a DNA duplex with sequences 5′-A20-3′ and 5′-T20-3′ (polyA·polyT; i.e., DNAAT; 50 μM; Integrated DNA Technologies), or a DNA duplex with sequences 5′-G20-3′ and 5′-C20-3′ (polyG·polyC; i.e., DNAGC; 50 μM; Integrated DNA Technologies). These solutions were incubated for 2 h at ambient temperature, followed by measurement of absorption spectra. The solutions were then diluted to 500 nM in PBS for measurement of fluorescence spectra or diluted to 1.25 μM in PBS for measurement of quantum yield. Found: 10HST Φ=0.009; 10HST·DNAAT Φ=0.126; 10HST·DNAGC Φ=0.040.

polyA·polyT DNA (DNAAT) = assay: Quantum yield of 10HST following binding DNA (polyA·polyT); conditions: PBS pH 7.4, with polyA·polyT DNA duplex
Experimental: as §1, §2

Compound | εmax [1] | KL-Z (lactone-zwitterion equilibrium constant) [1] | ϕ (fluorescence quantum yield) [3] | εw [6] | λabs [6] | λem [6] | further results
C[Si]1(C)c2cc(N3CCC3)ccc2C2(OC(=O)c3ccccc32)c2ccc(N3CCC3)cc21 [dye 2, JF646] | 152,000 M^−1cm^−1 | 0.0012 | 0.54 | 5,000 M^−1cm^−1 | 646 nm | 664 nm | Φ (fluorescence quantum yield) [2]: 0.54; change of absorption with detergents [4]: absorbance increases only in the presence of SDS; λabs [5]: 646 nm; λem [5]: 664 nm; ε (extinction coefficient) [5]: 5,000 M^−1 cm^−1; KL-Z [7]: 0.0012
C[Si]1(C)c2cc(N3CC(F)C3)ccc2C2(OC(=O)c3ccccc32)c2ccc(N3CC(F)C3)cc21 [dye 3, JF635] | 167,000 M^−1cm^−1 | <0.0001 | 0.56 | ~400 M⁻¹ cm⁻¹ | 635 nm | 652 nm | Φ (fluorescence quantum yield) [2]: 0.54; λabs [5]: 635 nm; λem [5]: 652 nm; ε (extinction coefficient) [5]: 400 M⁻¹ cm⁻¹; KL-Z [7]: < 0.0001
Si-Rhodamine 110 [dye 8] | 94,000 M^−1cm^−1 | 0.0043 | 0.53 | 2,200 M^−1cm^−1 | 587 nm | 609 nm | hypsochromic shift [6]: ~50 nm
CN(C)c1ccc2c(c1)[Si](C)(C)c1cc(N(C)C)ccc1C21OC(=O)c2ccccc21 [dye 1, tetramethyl-Si-rhodamine] | 141,000 M^−1cm^−1 | 0.0034 | 0.41 |  |  |  | Φ (fluorescence quantum yield) [2]: 0.41; change of absorption with detergents [4]: absorbance increases only in the presence of SDS; KL-Z [7]: 0.0034
CC1(C)c2cc(N3CCC3)ccc2C2(OC(=O)c3ccccc32)c2ccc(N3CCC3)cc21 [dye 4, JF608] | 121,000 M^−1cm^−1 | 0.091 | 0.67 | 99,000 M^−1cm^−1 | 608 nm | 631 nm | 
O=C(NCCOCCOCCCCCCCl)c1ccc2c(c1)C1(OC2=O)c2ccc(N3CCC3)cc2Oc2cc(N3CCC3)ccc21 [6HTL] |  |  |  |  |  |  | labeling of yeast nuclei (fluorescence signal) [8]: relatively poor labeling
JF526-Hoechst [10HST] |  |  |  |  |  |  | Φ (polyG·polyC DNA (DNAGC)): 0.040; Φ ([3]; PBS pH 7.4, no DNA (blank), 1.25 μM): 0.009; Φ (polyA·polyT DNA (DNAAT)): 0.126
O=C(NCCOCCOCCCCCCCl)c1ccc(C(=O)[O-])c(-c2c3cc(F)c(=[N+]4CCC4)cc-3oc3cc(N4CCC4)c(F)cc23)c1 [9HTL, JF552-HaloTag ligand] |  |  |  |  |  |  | labeling of yeast nuclei (fluorescence signal) [8]: high fluorescence signal

Second part, led by results:

εmax [1] | KL-Z (lactone-zwitterion equilibrium constant) [1] | ϕ (fluorescence quantum yield) [3] | εw [6] | λabs [6] | λem [6] | Compound | further results
129,000 M^−1cm^−1 | 0.70 | 0.83 | 95,000 M^−1cm^−1 | 552 nm | 575 nm | O=C([O-])c1ccccc1-c1c2cc(F)c(=[N+]3CCC3)cc-2oc2cc(N3CCC3)c(F)cc12 [dye 9, Janelia Fluor 552] | reduction of KL-Z ([1]; relative to JF549): 5 fold
134,000 M^−1cm^−1 | 3.5 | 0.88 | 101,000 M^−1cm^−1 | 549 nm | 571 nm | O=C1OC2(c3ccc(N4CCC4)cc3Oc3cc(N4CCC4)ccc32)c2ccccc21 [dye 6, JF549] | 
156,000 M^−1cm^−1 | <0.0001 | 0.78 | 1,500 M^−1cm^−1 | 585 nm | 609 nm | CC1(C)c2cc(N3CC(F)(F)C3)ccc2C2(OC(=O)c3ccccc32)c2ccc(N3CC(F)(F)C3)cc21 [dye 5, JF585] | 
122,000 M^−1cm^−1 | 0.068 | 0.91 | 94,000 M^−1cm^−1 | 525 nm | 549 nm | O=C1OC2(c3ccc(N4CC(F)(F)C4)cc3Oc3cc(N4CC(F)(F)C4)ccc32)c2ccccc21 [dye 7, JF525] | hypsochromic shift [6]: ~25 nm
